Results published in patent publication US6376488B1, “Benzoxazine α-1 adrenergic compounds” (Abbott Laboratories, priority 2000, dated 2002).

Target: T1, α1d (rat) adrenoreceptor (Rattus norvegicus, UniProt P23944)
T1 sequence (P23944 1-561): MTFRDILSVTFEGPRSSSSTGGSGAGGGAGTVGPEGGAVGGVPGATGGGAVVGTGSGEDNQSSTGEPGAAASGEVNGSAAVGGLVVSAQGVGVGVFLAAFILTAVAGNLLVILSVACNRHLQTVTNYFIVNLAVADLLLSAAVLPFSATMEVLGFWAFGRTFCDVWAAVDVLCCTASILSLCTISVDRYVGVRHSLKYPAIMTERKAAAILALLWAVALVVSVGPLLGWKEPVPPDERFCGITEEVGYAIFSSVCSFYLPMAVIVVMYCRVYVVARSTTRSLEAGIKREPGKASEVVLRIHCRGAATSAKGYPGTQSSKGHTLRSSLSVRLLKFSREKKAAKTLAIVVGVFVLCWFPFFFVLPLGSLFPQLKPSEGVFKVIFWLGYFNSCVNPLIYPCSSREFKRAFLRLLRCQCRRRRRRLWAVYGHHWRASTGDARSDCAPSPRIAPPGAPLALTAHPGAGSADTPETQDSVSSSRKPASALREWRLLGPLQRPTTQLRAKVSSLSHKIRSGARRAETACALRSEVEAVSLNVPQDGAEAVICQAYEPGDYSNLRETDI
Assay: [3H]-prazosin radioligand binding, cloned α1d (rat) adrenoreceptor in LTK cells
Conditions: cloned receptor in LTK cell membranes, [3H]prazosin 0.2 nM
Protocol: Representative compounds of the invention were evaluated for α adrenoreceptor binding affinity in vitro using [^3H]-prazosin as the radioligand and following four cloned α1, adrenoreceptors expressed in LTK cells: α1a (rat), α1a (bovine), α1b : (hampster), and α1d (rat).
The cDNA clones encoding the α1, adrenoreceptors were obtained from TULCO (Triangle Universities Licensing Consortium, Research Triangle Park, N.C.) and inserted into the eukaryotic expression vector SnaB30. In this vector, expression of the adrenoreceptor gene is under the transcriptional control of an SV40 early promoter. Positive drug selection is provided by a neomycin-resistance gene. Mouse fibroblast cells (LTK) were transfected with the α1 expression plasmids and grown in Dulbecco's modified Eagle's medium (DMEM) containing 10% fetal calf serum and 30 μM G418. Stable G418-resistant parental lines were generated with successful expression of adrenoreceptor protein monitored using radioligand binding techniques. Stable single cell clones derived from the parental lines were screened in adrenoreceptor binding assays to identify clones having high adrenoreceptor density. Roller bottle cultures of the cloned lines were used to provide cell membranes for subsequent adrenoreceptor binding characterization studies. A cell line containing the SnaB30 vector expressing the human erythropoietin gene served as a negative control.
For adrenoreceptor binding assays, large scale membrane preparations were utilized in which 6 million cells were seeded into small (450 cm^2) Coming tissue culture roller bottles. DMEM (200 mL) containing 10% fetal calf serum and 300 μM G418 were added to each roller bottle. A 95% air/5% CO2 gas mixture (sterile) was injected into each roller bottle prior to sealing, and the bottles were then incubated at 37° C. on a roller rack for 5 days. Cells were refed with fresh medium after 3 days in culture.
On the fifth day of culture, growth medium was removed from cells grown in roller bottles, and the cells were washed twice with PBS (Sigma, 120 mM NaCl, 2.7 mM KCl, 10 mM Na2HPO4-NaH2PO4, pH=7.4). Cells were detached from the roller bottles by incubating for 15 minutes at 37° C. in a Tris-EDTA solution (10 mM Tris, 100 mM NaCl, 1 mM EDTA, pH=7.4). The cell suspension from each roller bottle was decanted into tared centrifuge tubes and kept on ice. An aliquot of each cell suspension was generally taken for cell counting. Cells were centrifuged at 3000×G for 5 minutes at 2-4° C., washed with PBS and recentrifuged. The supernatant was decanted, and the pellet was weighed to determine the wet weight of cells. Cells were washed a final time in 40 vol 5 mM Tris-HCl, 5 mM EDTA, pH=7.7 and centrifuged at 40,000×G for 10 minutes (“vol” indicates volume/weight, e.g., a “vol” of 40 would indicate that the one gram of cells were washed with 40 mls of buffer). Cells were homogenized in of 50 mM Tris-HCl, 5 mM EDTA (pH=7.4) (10 mL) and diluted to 40 mL/tube. Homogenates were centrifuged at 40,000×G for 10 minutes. The supernatant was decanted and the pellets rehomogenized in 50 mM Tris-HCl (pH=7.4) and centrifuged as before. The supernatant was decanted and the homogenate was resuspended in 6.25 volumes (per gram wet weight) of 50 mM Tris-HCl and aliquots of the pooled homogenates frozen in liquid N2 and,stored at −70° C. until the time of assay.
Receptor binding assays for α1 adrenoreceptors were performed essentially as described by Greengrass and Bremner (Eur. J. Pharmacol. 55: 323-326 (1979)). […] Following equilibration, bound radioligand was separated from free on GF/B filters (presoaked in 0.5% polyethyleneimine) using ither a Brandel or Packard cell harvester. Radioactivity was determined by standard liquid scintillation techniques. Data were analyzed as previously described (Hancock, A. A., Kyncl, J. J., Martin, Y. C. and DeBemardis, J. F., J. Receptor Res. 8: 23-46 (1988)). The in Table 1.

Ki: 4.26 nM
Compound: Cl.Cl.O=c1[nH]c2c(sc3ncccc32)c(=O)n1CCCCN1CCN2c3ccccc3OCC2C1 (single isomer, unassigned; (+)) [Example 5, (+) 3-[4-(1,2,4a,5-tetrahydropyrazino[2,1-c][1,4]benzoxazin-3(4H)-yl)butyl]pyrido[3′, 2′:4,5]thieno[3,2-d]pyrimidine-2,4(1H,3H)-dione dihydrochloride]
